{
  "source": "patent US10746738B2",
  "about": "“Claudin-1 peptide reagents and methods” (THE REGENTS OF THE UNIVERSITY OF MICHIGAN, priority 2015, dated 2020)",
  "key": {"[1]": {"tested_on": "human colonic adenocarcinoma cells (SW620, SW480, HT29, HCT116)", "test": "Cell binding assay on adenocarcinoma cell panel and co-localization with anti-claudin-1 antibody", "assay_type": "cell-based", "experimental": "SW620, SW480, and HT29 cells were plated at 0.5×10^6 cells/mL on coverslips on 12-well plates. The following day, the cells were treated with either 10 μM either RTS*-Cy5.5 or SPT*-Cy5.5 for 1 h at 4° C., fixed with 4% PFA for 10 minutes at RT, then counterstained with DAPI with Prolong Gold. Fluorescent images were collected and analyzed as detailed above. Statistical analysis was performed using a one-way ANOVA analysis on GraphPad Prism.\nThe cells were incubated with the peptide (10 μM) at 4° C. for 1 hour, washed 3× with PBS, fixed with 4% PFA, and mounted with ProLong Gold containing DAPI (Invitrogen). The mean (±std) fluorescence intensities were quantified using custom Matlab software (FIG. 5F). Levels of claudin-1 expression from cytosol (C) and membrane (M) of cells are shown on western blot (FIG. 5G). The cells were then incubated with 1:50 dilution of primary anti-claudin-1 rabbit mAb (4267, Invitrogen) for 1 hour at 4° C., and washed 3× with PBS at RT. The cells were further incubated with 1:500 dilution of […] labeled with Alexa Fluor 488 (Invitrogen) for 1 hour at RT. Co-localization of peptide (red) and antibody (green) binding to SW620 cells can be appreciated on the overlay fluorescence image (FIG. 5H). A Pearson's correlation of ρ=0.56 was calculated using custom Matlab software."}, "[2]": {"tested_on": "SW620 cells", "test": "Confocal signal and photostability of Cy5- versus FITC-labeled peptide on cells", "assay_type": "cell-based, human", "conditions": "for mean (±std) fluorescence intensity: 10 μM, 4° C., 1 hour, n=6 cells", "experimental": "We incubated pep*-Cy5 (RTS*-Cy5) and pep*-FITC ([…]) (10 μM) (FIG. 4A) with human colon adenocarcinoma (SW620) cells that over-express Claudin-1 at 4° C. for 1 hour. A supercontinuum “white light” laser provided continuous excitation at 1.5 mW for both λex=647 and 488 nm. Confocal images (Leica TCS SP5 Microsystems) were collected using Cy5 and FITC filters every 2 min. At time 0 min, peptide (RTS*-Cy5) binding to the cell surface (arrow) is shown, scale bar 10 μm (FIG. 4B). The mean (±std) fluorescence intensities for the Cy5 and FITC-labeled peptides, measured from n=6 cells, were 58.4±3.7 and 3.1±0.6 A.U. respectively, resulting in ˜20-fold increase in signal using the NIR fluorophore. We also found a 8.5% reduction in fluorescence intensity for pep*-Cy5 in comparison to 32% for pep*-FITC at 12 min, resulting ˜4-fold improvement in photostability (FIG. 4C)."}, "[3]": {"tested_on": "human colonic tissues", "test": "Ex vivo staining of human colonic tissue sections", "experimental": "Human colon tissue was obtained through consenting patents at the University of Michigan Hospital. Tissue was frozen in OCT and sectioned 10 μm thick using a Cryostat. The sections were thawed before staining with 10 μM RTS*-Cy5 for 15 minutes at RT. Tissues were then washed with PBS, fixed with 4% PFA for 10 min at RT, and counterstained with DAPI with Prolong Gold. Fluorescence was imaged and quantified as outlined above.\nSpecimens of normal colonic mucosa, adenoma, and adenocarcinoma from the right side (proximal) of the colon were obtained from routine surveillance colonoscopy and surgically removed by endoscopic mucosal resection. The tissues were frozen in OCT (Sakura Finetek), cut in 10 μm sections, and incubated with pep*-Cy5 (5 μM) in 1×PBS for 15 minutes at RT. The sections were washed 3× with PBS. Confocal fluorescence images were collected from these sections with DAPI, FITC and Cy5 filter sets (Leica TCS SP5 Microsystems).\nThe mean fluorescence intensities (±SEM) from binding of pep*-Cy5 were measured for normal colonic mucosa (n=4, 7±2 AU), adenoma (n=6, 26±4 AU) and adenocarcinoma (n=5, 31±4 AU), P<0.001, unpaired t-test (FIG. 6, scale bar 500 μm). […] We found pep*-Cy5 and anti-claudin-1 mAb to stain colonic adenomas and adenocarcinomas in 11/12 (92%) and 10/10 (100%) sections, respectively."}, "[4]": {"tested_on": "colonic dysplasia", "test": "In vivo fluorescence endoscopy of colon in CPC;Apc mouse", "conditions": "for fluorescence signal from dysplasia on endoscopy: CPC;Apc mouse colon", "text": "A genetically engineered mouse model (Cpc;Apc) that spontaneously forms adenomatous polyps in the colon was used for this study and handled according to Institutional Guidelines. The colons of anesthetized mice were first cleaned with water before imaging with a small animal endoscope (Karl Storz Veterinary Endoscope) using the white light channel to locate polyps by identifying anatomic landmarks and the distance of the endoscope tip from the anus. […] Fluorescent and reflectance images were then collected with the same endoscope set to the appropriate channels. Once in vivo imaging was complete, four of the mice used in the study were euthanized and colons harvested. Polyps and flat lesions detected during fluorescence imaging were located, removed, and processed for histology (H&E).\nThese mice are genetically-engineered to spontaneously develop colonic dysplasia, and the colonic lesions that develop are molecularly and histologically similar to that seen in human disease, making these mice a good model for monitoring cancer development. Because the extra-cellular domain of claudin-1 is completely homologous between human and mouse, peptides developed for human targets can be directly used in mouse imaging experiments. […] CPC;Apc mice were imaged at ˜3 months of age when they first begin to develop dysplasia. […] After imaging is completed, mice were euthanized, and the colons were resected. Based on the location of dysplastic lesions determined using fluorescence images collected with endoscopy, a pathologist measured the depth of dysplasia on histology, as shown by the dashed arrow in FIG. 7E. […] Images are obtained from mice over at least three sessions separated by 1 week to monitor for cancer progression."}, "[5]": {"target": "T1, claudin-1 (CLDN1) (Homo sapiens, UniProt O95832)", "T1 construct": "endogenous in cells; host or cells: SW620 human colorectal adenocarcinoma cells", "T1 sequence (O95832 1-211)": "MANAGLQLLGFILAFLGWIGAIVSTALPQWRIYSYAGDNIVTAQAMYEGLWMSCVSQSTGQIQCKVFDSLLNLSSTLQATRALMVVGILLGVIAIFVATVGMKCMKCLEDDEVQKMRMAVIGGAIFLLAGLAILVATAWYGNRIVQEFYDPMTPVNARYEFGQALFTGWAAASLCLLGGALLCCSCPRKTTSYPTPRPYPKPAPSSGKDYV", "test": "siRNA knockdown of CLDN1 expression, peptide and antibody binding to SW620 cells", "assay_type": "cell-based", "experimental": "CLDN1 expression was knocked down using Dharmacon On-Target Plus SMARTpool Human CLDN1 siRNA (Thermo Scientific) according to the manufacturer's protocol. SW620 cells were plated overnight on coverslips in a 12-well plate at 0.2×10^6 cells/mL. The following day, cells were transfected with 3 μL DharmaFECT1 and either 25 nM CLDN1 or control siRNA. After 72 h, transfected cells were analyzed for CLDN1 expression through immunocytochemistry, a peptide binding study, or a Western blot of the cell lysate. For the immunocytochemistry experiment, cells were fixed with ice-cold methanol for 20 minutes at −20° C., blocked for 1 h at RT with PBS+2% BSA, stained with anti-human CLDN1 antibody at 5 μg/mL for 1 h at RT, then with goat anti-Rabbit AF488 (1:500) for 1 h at RT before being mounted on slides with DAPI with Prolong Gold. siRNA-transfected cells were also stained with 5 μM RTS-Cy5.5 or SPT-Cy5.5 for 30 minutes at 4° C., fixed with 4% PFA for 10 minutes at RT, then mounted on slides. Simultaneously, transfected cells were lysed with RIPA buffer containing Roche Mini-Complete EDTA-free Protease Inhibitor for 10 minutes on ice, collected and spun at 20,000×g for 10 minutes at 4° C. Supernatant was saved, total protein concentration quantified via a BCA assay, and 10 ug protein of each sample run on a Novex 4-20% 1.5 mm protein gel before transferring to a PVDF membrane. The membrane was blocked with PBST+5% non-fat milk for 1 h at 4° C., stained with either rabbit anti-CLDN1 Ab or mouse anti-tubulin Ab at 4° C. overnight, then with anti-rabbit HRP (1:500, for CLDN1) or anti-mouse HRP (1:500, for tubulin) for 1 h at RT before developing.\nThe specificity of peptide binding was validated on siRNA knockdown. […] These cells were transfected with siRNA to knockdown cell surface expression of claudin-1. […] The fluorescence intensities (mean±std) are shown (FIG. 2H). […] Given the experimental design and mean-squared-errors shown in FIG. 2H, with triplicate slides we have 98% power to obtain P<0.01 for interactions that show a 3-fold difference of differences."}, "[6]": {"tested_on": "T84 monolayers", "test": "Transepithelial electrical resistance (TEER) and tight junction immunofluorescence", "assay_type": "cell-based, human", "experimental": "T84 human colon carcinoma cells were grown in a 1:1 mixture of DMEM and Ham's F-12 culture medium supplemented with 5% FBS. To establish polarized monolayer, the cells were plated on transwell permeable polyester supports (1.12 cm^2, pore size 3 μm, Costar) until they reached confluence after ˜3-4 days, as determined by an increase in TEER.43 The cells were continually grown on transwell supports until the TEER reached ˜2000 Ω-cm^2. […] TEER was then measured at 6, 12 and 24 hours. The cells were fixed with 4% PFA for 12 min. After brief washing, 1% SDS in PBS was used to permeabilize the cells. These procedures were followed by 3% goat serum in PBS blocking for 30 min. Mouse anti-zonula occludens-1 (anti-ZO-1) (1:250, Life Technologies) and rabbit anti-claudin-1 (1:200, Life Technologies) antibodies were diluted in block buffer and incubated in humidity box overnight at 4° C. and fluorescent secondary antibodies were diluted to 1:1000 and incubated for 1 hour at RT. All images were obtained using Nikon A1 confocal microscope (MIL, University of Michigan).\nWe evaluated the effect of peptide binding on tight junction function using a polarized monolayer of T84 cells plated on transwell supports."}, "[7]": {"conditions": "at 12 min of continuous excitation"}},
  "note": "Ends that are not written are not given here. Cy5.5 = near infrared dye label",
  "data": [
    {"substance": "pep*-Cy5: RTSPSSR labeled at the C-terminus with Cy5 via a GGGSK linker", "values": [
      {"measurement": "binding to cell surface", "setting": "[1]; 10 μM, 4° C., 1 hour, control tested on SW620 cells", "result": "specific binding"},
      {"measurement": "Pearson's correlation ρ, co-localization with anti-claudin-1 antibody", "setting": "[1]; SW620 cells", "result": 0.56},
      {"measurement": "mean (±std) fluorescence intensity", "setting": "[2]", "result": "58.4±3.7", "unit": "A.U."},
      {"measurement": "increase in signal using Cy5 label versus FITC", "setting": "[2]; SW620 cells", "result": "~20", "unit": "fold"},
      {"measurement": "improvement in photostability compared to FITC-labeled peptide", "setting": "[2]; [7]", "result": "~4", "unit": "fold"},
      {"measurement": "reduction in fluorescence intensity", "setting": "[2]; [7]", "result": 8.5, "unit": "%"},
      {"measurement": "mean fluorescence intensity (±SEM)", "setting": "[3]; adenocarcinoma, n=5", "result": "31±4", "unit": "AU"},
      {"measurement": "sections stained", "setting": "[3]; adenocarcinomas, 10/10 sections", "result": 100, "unit": "%"},
      {"measurement": "mean fluorescence intensity (±SEM)", "setting": "[3]; adenoma, n=6", "result": "26±4", "unit": "AU"},
      {"measurement": "sections stained", "setting": "[3]; colonic adenomas, 11/12 sections", "result": 92, "unit": "%"},
      {"measurement": "mean fluorescence intensity (±SEM)", "setting": "[3]; normal colonic mucosa, n=4", "result": "7±2", "unit": "AU"}
    ]},
    {"substance": "pep*-FITC: RTSPSSR labeled at the C-terminus with FITC via a GGGSK linker", "values": [
      {"measurement": "mean (±std) fluorescence intensity", "setting": "[2]", "result": "3.1±0.6", "unit": "A.U."},
      {"measurement": "reduction in fluorescence intensity", "setting": "[2]; [7]", "result": 32, "unit": "%"}
    ]},
    {"substance": "SPT*-Cy5.5: control scrambled sequence SPTPSSR labeled with Cy5.5 via the GGGSK linker (SPTPSSRGGGSK-{Cy5.5}) [reference compound]", "values": [
      {"measurement": "fluorescence signal from dysplasia on endoscopy", "setting": "[4]", "result": "minimal signal"},
      {"measurement": "signal for siCL versus siCLDN1 cells", "setting": "[5]; SW620 cells, control siRNA versus CLDN1 siRNA, 3 replicate slides", "result": 0.80, "unit": "fold-change"},
      {"measurement": "binding to the surface of SW620 cells", "setting": "[5]; confocal microscopy", "result": "minimal binding"}
    ]},
    {"substance": "SPTPSSR [SPT*]", "values": [
      {"measurement": "fluorescence signal from dysplasia on endoscopy", "setting": "[4]", "result": "minimal signal"},
      {"measurement": "T/B ratio (mean±SD)", "setting": "[4]; n=10 dysplasias, topical 100 μM, 5 minutes", "result": "1.19±0.23"},
      {"measurement": "trans-epithelial electrical resistance (TEER)", "setting": "[6]; 5 μM peptide, up to 24 hours", "result": "high"},
      {"measurement": "effect on tight junction function and ZO-1 distribution", "setting": "[6]; 24 hours after peptide incubation", "result": "neither peptide alters tight junction function or ZO-1 distribution"}
    ]}
  ]
}
